Test results published in patent publication US20260355184A1, “SMALL MOLECULE DEGRADERS OF HIV-1 TAT PROTEIN” (priority 2022, published 2026).
“Also recorded” adds a separate entry of the source.

Legend:
HeLa-CD4-LTR-LacZ cells = assay: Cytotoxicity assay, Cell-Titer-Glo, HeLa-CD4-LTR-LacZ; conditions: Cell-Titer-Glo in parallel to infectivity assay
Procedure, shortened: (§1)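 HeLa-CD4-LTR-LacZ reporter cells (β-Gal under HIV 5′ LTR) infected with HIV NL4.3; β-Gal activity read 72 h post infection, with parallel Cell-Titer-Glo viability. OM10.1 carry a single wild-type provirus; ACH-2 a single provirus with TAR C37T mutation, defective Tat-TAR feedback.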

[1] = as above; conditions: human, hela-cd4-ltr-lacz cells, Infectivity CC50, HeLa-CD4-LTR-LacZ
Procedure, shortened: as §1

GFP = assay: Degradation assay control: GFP in HEK293T cells, western blot; assay type: cell-based
Procedure: Next, the effect of the three leads on the alteration of Tat steady state levels was assessed. Tat expression from an integrated provirus, or from HIV acute infection is generally too low to be detected by western blot. Furthermore, antibodies against Tat are known for their lack of avidity. Tat degradation was thus assessed upon transfection. Flag-Tat or Flag-GFP were individually transfected into HEK293T and 24 hrs later, TT-44856, TT-44863 or TT-44881 were added to the culture, followed by Western blot 24 hrs later (dubbed “degradation assay”) (FIG. 5A). […] Finally, the leads' impact on recombinant Tat protein in HEK293T cells was assessed (FIG. 5D). HEK293T cells were incubated with recombinant Tat for 4 hrs to allow Tat internalization, followed by several thorough washes to remove unincorporated Tat. Cells were then incubated with all three leads (or Triptolide) for an additional 2 hrs. Cells were lysed and analyzed by western blot with an anti-Tat serum.

Tat Y26A = Tat Y26A (Human immunodeficiency virus type 1 (HXB3 ISOLATE), UniProt P69698, Y26A); conditions: TT-44856 and TT-44863 40 μM, TT-44881 60 μM
Text: (§2) The molecular docking of HIV Tat protein bound to dCA was previously reported, informed by a series of more than 60 analogs of dCA, using AutoDock Vina with the NMR HIV Tat Mal protein (D clade) as a template (Protein data Bank, PDB entry 1K5K)21. […] Single changes to residues Y26 and F38 decrease Tat transactivation activity^33-36. […] To validate the molecular docking model, Tat variants with either deletions or mutated residues were used in degradation assays in the presence of leads.

[2] = target: Tat variants with cysteine or core regions truncated (Human immunodeficiency virus type 1 (HXB3 ISOLATE), UniProt P69698); conditions: TT-44856 and TT-44863 40 μM, TT-44881 60 μM
Text: as §2

Flag-Tat = target: T1, Flag-Tat (Human immunodeficiency virus type 1 (HXB3 ISOLATE), UniProt P69698); assay: Degradation assay: Flag-Tat in HEK293T cells, western blot; assay type: cell-based, HIV; conditions: for effect of chloroquine or NH4Cl on compound induced Flag-Tat degradation: Chloroquine 100 μM or NH4Cl 50 mM, 8 hrs; for Flag-Tat degradation / steady state: western blot; for effect of Lenalidomide on compound induced Flag-Tat degradation: Lenalidomide 40 μM, 4 hrs; for effect of MG132 on compound induced Flag-Tat degradation: MG132 20 μM, 17 hrs
T1 construct: Tat 86 aa likely (9 lysines)
Procedure: Next, the effect of the three leads on the alteration of Tat steady state levels was assessed. Tat expression from an integrated provirus, or from HIV acute infection is generally too low to be detected by western blot. Furthermore, antibodies against Tat are known for their lack of avidity. Tat degradation was thus assessed upon transfection. Flag-Tat or Flag-GFP were individually transfected into HEK293T and 24 hrs later, TT-44856, TT-44863 or TT-44881 were added to the culture, followed by Western blot 24 hrs later (dubbed “degradation assay”) (FIG. 5A). […] These cells were treated with TNFα (previously determined not be degraded by the three leads in FIG. 2D) in the presence of TT-44856, TT-44863 or TT-44881, followed by western blot with an anti-Flag antibody 17 hrs later. […] Finally, the leads' impact on recombinant Tat protein in HEK293T cells was assessed (FIG. 5D). HEK293T cells were incubated with recombinant Tat for 4 hrs to allow Tat internalization, followed by several thorough washes to remove unincorporated Tat. Cells were then incubated with all three leads (or Triptolide) for an additional 2 hrs. Cells were lysed and analyzed by western blot with an anti-Tat serum.
Degradation of Tat has been reported in the literature in multiple ways, including the lysosomal pathway^23, the ubiquitin-independent 20S proteasomal pathway (due to its unfolded structure)^24,25, and the ubiquitin-dependent 26S proteasomal pathway^26. It was first assessed whether Tat was targeted to the lysosomal pathway by the lead compounds. HEK293T cells were transfected with Flag-Tat for 24 hrs, incubated with the compounds for an additional 24 hrs, then treated for 8 hrs with either 100 μM chloroquine or 50 mM NH4Cl, both known to inhibit lysosomal hydrolases by reducing acidification. […] Both the 20S and the 26S proteasomal pathways were next investigated using MG132, an inhibitor of the catalytic […] of 20S present in both pathways^27. The degradation assay was carried out as above, but compounds were simultaneously incubated with MG132 20 μM or DMSO for 17 hrs followed by western blot. In the presence of MG132, Tat degradation was rescued, but the rescue was higher in the presence of the lead compounds (FIG. 6B).
Protein ubiquitination occurs by sequential recruitment of ubiquitin-activating enzyme E1, ubiquitin-conjugating enzyme E2, and ubiquitin ligase E3 (using ubiquitin, substrate protein, and ATP). The selectivity in protein ubiquitination is conferred by E3 ubiquitin ligases that recognize the substrate proteins^29 and the human genome contains more than 600 E3 ubiquitin ligases^29. To determine whether the small molecule leads trigger the 20S or the 26S proteasomal pathways, the Tat degradation assay was performed in the presence of commercially available E3 ligase inhibitors, including Lenalidomide a E3 ubiquitin ligase Cereblon inhibitor. Cereblon has not been previously reported to ubiquitinate Tat. The degradation assays were performed as above with Lenalidomide (40 μM) or DMSO incubation for 4 hrs in the presence of the lead molecules (FIG. 7A). […] To confirm the engagement of Cereblon in the mechanism of action of the lead compounds, shRNAs were used to stably knock down Cerebelon, or CD8 control, in HEK293T cells, and the degradation assay for TT-44856 was performed.
The involvement of the ubiquitous VHL E3 ligase in the activity of TT-44881 inducing Tat degradation was also investigated. HEK293T cells overexpressing Tat protein and VHL siRNAs (or si control) were treated with either TT-44881 (60 μM) and DMSO or TT-44881 with a VHL PROTAC (CM11, 500 nM) for 24 hours. siRNAs and PROTACs were used together to maximize the depletion of both VHL isoforms (30 and 19 kDa).

Sequence of Tat Y26A (P69698 whole entry Y26A): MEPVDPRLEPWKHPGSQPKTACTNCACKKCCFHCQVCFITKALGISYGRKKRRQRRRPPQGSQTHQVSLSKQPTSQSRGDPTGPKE
T1 sequence (P69698 whole entry): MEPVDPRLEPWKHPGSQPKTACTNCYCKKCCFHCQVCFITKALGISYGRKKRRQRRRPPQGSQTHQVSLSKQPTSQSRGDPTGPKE

## COCCOc1ccc(C(F)(F)F)cc1NC(=O)Cn1cc(C(F)(F)F)cc(Cl)c1=O [TT-44863]
HeLa-CD4-LTR-LacZ cells
  toxicity: without signs of toxicity
[1]; analogs of TT-44863 (Table 2)
  CC50: > 800 µM
GFP
  effect on GFP expression: did not affect GFP expression
Tat Y26A
  Tat degradation, Y26A mutation: ablated lead hits' ability to mediate Tat degradation
[2]
  Flag-Tat degradation, cysteine or core regions truncated: no longer degraded Flag-Tat
Flag-Tat; n=1
  effect of chloroquine or NH4Cl on compound induced Flag-Tat degradation: do not prevent lead hits induced Flag-Tat degradation
Flag-Tat; HEK293T
  Flag-Tat degradation / steady state: Tat protein degradation was observed
Flag-Tat
  effect of Lenalidomide on compound induced Flag-Tat degradation: prevents Tat compounds induced Flag-Tat degradation
  effect of MG132 on compound induced Flag-Tat degradation: prevents lead hits induced Flag-Tat degradation

## CC(C(=O)NCCCn1ccnc1)(c1ccccc1)c1ccccc1 [TT-44856]
HeLa-CD4-LTR-LacZ cells
  toxicity: without signs of toxicity
[1]; analogs of TT-44856 (Table 3)
  CC50: > 100 µM
GFP
  effect on GFP expression: did not affect GFP expression
Tat Y26A
  Tat degradation, Y26A mutation: ablated lead hits' ability to mediate Tat degradation
[2]
  Flag-Tat degradation, cysteine or core regions truncated: no longer degraded Flag-Tat
Flag-Tat; n=1
  effect of chloroquine or NH4Cl on compound induced Flag-Tat degradation: do not prevent lead hits induced Flag-Tat degradation
Flag-Tat; HEK293T
  Flag-Tat degradation / steady state: Tat protein degradation was observed
Flag-Tat
  effect of Lenalidomide on compound induced Flag-Tat degradation: prevents Tat compounds induced Flag-Tat degradation
  effect of MG132 on compound induced Flag-Tat degradation: prevents lead hits induced Flag-Tat degradation
Flag-Tat; shRNA Cereblon, HEK293T, TT-44856 40 μM, n=1
  Flag-Tat degradation upon Cereblon knockdown: no longer engaging Flag-Tat for degradation; also recorded: diminishes TT-44856 induced Flag-Tat degradation

## O=C(CCCCN1CCCC1=O)c1nn(-c2ccccc2)c2c1CCC2 [TT-44881]
HeLa-CD4-LTR-LacZ cells
  toxicity: without signs of toxicity
[1]; analogs of TT-44881 (Table 1)
  CC50: > 100 µM
GFP
  effect on GFP expression: did not affect GFP expression
Tat Y26A
  Tat degradation, Y26A mutation: ablated lead hits' ability to mediate Tat degradation
[2]
  Flag-Tat degradation, cysteine or core regions truncated: no longer degraded Flag-Tat
Flag-Tat; n=1
  effect of chloroquine or NH4Cl on compound induced Flag-Tat degradation: do not prevent lead hits induced Flag-Tat degradation
Flag-Tat; HEK293T
  Flag-Tat degradation / steady state: Tat protein degradation was observed
Flag-Tat
  effect of Lenalidomide on compound induced Flag-Tat degradation: prevents Tat compounds induced Flag-Tat degradation
  effect of MG132 on compound induced Flag-Tat degradation: prevents lead hits induced Flag-Tat degradation
Flag-Tat; VHL siRNA and VHL PROTAC CM11 500 nM, 24 hours, TT-44881 60 μM
  Tat degradation upon VHL depletion: no longer depleted
